Data on 10 compounds can be found in patent publication US6140368A, “Naphthols useful in antiviral methods” (The Regents of the University of California, priority 1998, dated 2000).

SMILES strings stand for the structures. Like-named read-outs stand apart in the source and are kept apart here.

One may read the IC50 as the concentration needed to halve the response being measured. What is called remaining activity is what remains of the control signal, in per cent.

For test [1], the target named is T1, HIV integrase (Human immunodeficiency virus type 1 group M subtype B, UniProt P04585). As to the kind of experiment: biochemical. The note with it: read-out: Inhibition of 3' processing activity (IC50).
Test [2] concerns the target HIV reverse transcriptase (Human immunodeficiency virus type 1 group M subtype B, UniProt P03366). Kind of test: Reverse transcriptase scintillation proximity assay (Example 4, Table 2). The class given is biochemical. The note with it: for IC50: read-out: IC50 (RT activity); for remaining activity at 10 µM: 0.05 h, 10 μM inhibitor, relative to dimethyl sulfoxide = 100%, read-out: % RT activity remaining at 10 μM. A digest of the protocol:
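Purified RT with biotinylated 17mer/50mer RNA-DNA template-primer (39 nm), pH 8.0 Tris with 10 mM MgCl2, 60 mM KCl, dNTPs plus tritiated dTTP; inhibitor preincubated 10 min at 37 °C before enzyme, reaction 3 min. Incorporation read by streptavidin SPA counting.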
(In a scintillation proximity assay essentially only radioactivity close to the scintillant gives light.)

Test [3] deals with HIV. Kind of test: Cell-based anti-HIV (XTT) assay (National Institutes of Health). The note with it: run by the National Institutes of Health. An excerpt: The anti-viral evaluations branch of the National Institutes of Health also ran cell-based anti-HIV (XTT) assays and reverse transcriptase (RT) assays on a number of the novel compounds. […] These were: 31, 32, 35, 36, 53, 54, 57, 58, 91, 99, and 103.
(In general: Tetrazolium assays rely on reduction of a dye to a coloured formazan, in cell work by metabolically active cells.)

The target in test [4] is T1, HIV integrase. Kind of test: biochemical. The note with it: read-out: Inhibition of strand transfer (IC50).

For `O=C(Nc1ccc2c(O)c(N=Nc3ccc(C(=O)O)cc3)c(S(=O)(=O)O)cc2c1)Nc1ccc2c(O)c(N=Nc3ccc(C(=O)O)cc3)c(S(=O)(=O)O)cc2c1` [Compound 31], the IC50 is 400 nM in test [1], 390 nM in test [2] and 700 nM in test [4]. Besides, the “conclusion of cell-based anti-HIV (XTT) assays and reverse transcriptase (RT) assays” value (shortened to “conclusion of cell-based anti-HIV”) in test [3] is “active or moderately active”.

For `O=C(O)Cc1ccc(N=Nc2c(S(=O)(=O)O)cc3cc(NC(=O)Nc4ccc5c(O)c(N=Nc6ccc(CC(=O)O)cc6)c(S(=O)(=O)O)cc5c4)ccc3c2O)cc1` [Compound 32], the IC50 in test [1] was 2000 nM; in test [2] it was 500 nM; in test [4] it was 700 nM. Moreover, in test [3], the “conclusion of cell-based anti-HIV” value is reported as “active or moderately active”.

For `O=C(Nc1ccc2c(O)c(N=Nc3cc(C(=O)O)ccc3C(=O)O)c(S(=O)(=O)O)cc2c1)Nc1ccc2c(O)c(N=Nc3cc(C(=O)O)ccc3C(=O)O)c(S(=O)(=O)O)cc2c1` [Compound 35], the IC50 worked out at 800 nM in test [1], 500 nM in test [2] and 2000 nM in test [4]. Besides, the “conclusion of cell-based anti-HIV” value in test [3] is recorded as “active or moderately active”.

As for `O=C(O)CCCc1ccc(N=Nc2c(S(=O)(=O)O)cc3cc(NC(=O)Nc4ccc5c(O)c(N=Nc6ccc(CCCC(=O)O)cc6)c(S(=O)(=O)O)cc5c4)ccc3c2O)cc1` [Compound 36], the results for the half-inhibitory concentration (IC50) in test [1], in test [2] and in test [4] were 800 nM, 500 nM and 1000 nM, respectively. For the same compound, in test [3], the “conclusion of cell-based anti-HIV” value is “active or moderately active”.

Take `Cc1cc(C(=O)O)ccc1N=Nc1c(S(=O)(=O)O)cc2cc(NC(=O)Nc3ccc4c(O)c(N=Nc5ccc(C(=O)O)cc5C)c(S(=O)(=O)O)cc4c3)ccc2c1O` [Compound 53]: the 50% inhibitory concentration (IC50) in test [1] came out at 500 nM; in test [2], 600 nM; in test [4], 2000 nM. Moreover, in test [3], the “conclusion of cell-based anti-HIV” value was “active or moderately active”.

With `COc1cc(C(=O)O)ccc1N=Nc1c(S(=O)(=O)O)cc2cc(NC(=O)Nc3ccc4c(O)c(N=Nc5ccc(C(=O)O)cc5OC)c(S(=O)(=O)O)cc4c3)ccc2c1O` [Compound 54], the IC50 stood at 4000 nM in test [1] and 2000 nM in test [4]. For the same compound, the remaining activity at 10 µM in test [2] was 0.6%. For the same compound, the “conclusion of cell-based anti-HIV” value in test [3] is “active or moderately active”.

Take `O=C(O)CCC(NC(=O)c1ccc(N=Nc2c(S(=O)(=O)O)cc3cc(NC(=O)Nc4ccc5c(O)c(N=Nc6ccc(C(=O)NC(CCC(=O)O)C(=O)O)cc6)c(S(=O)(=O)O)cc5c4)ccc3c2O)cc1)C(=O)O` (stereo not shown) [Compound 57]: the IC50 in test [1] amounted to 600 nM; in test [4] it was 900 nM. Also, the remaining activity at 10 µM in test [2] came out at 0.6%. Moreover, the “conclusion of cell-based anti-HIV” value in test [3] was “active or moderately active”.

`O=C(Nc1ccc2c(O)c(N=Nc3cccc(C(=O)O)c3)c(S(=O)(=O)O)cc2c1)Nc1ccc2c(O)c(N=Nc3cccc(C(=O)O)c3)c(S(=O)(=O)O)cc2c1` [Compound 58]: the figures for the concentration for half-maximal inhibition (IC50) in test [1], in test [2] and in test [4] were 200 nM, 800 nM and 600 nM, respectively. Besides, the “conclusion of cell-based anti-HIV” value in test [3] is “active or moderately active”.

`COc1cc(C(=O)O)ccc1N=Nc1c(S(=O)(=O)O)cc2cc(NC(=O)C(=O)Nc3ccc4c(O)c(N=Nc5ccc(C(=O)O)cc5OC)c(S(=O)(=O)O)cc4c3)ccc2c1O` [Compound 99]: in test [3], the “conclusion of cell-based anti-HIV” value was “active or moderately active”. Further, the half-inhibitory concentration (IC50) in test [4] amounted to 300 nM.

As for `Cc1cc(C(=O)O)ccc1N=Nc1c(S(=O)(=O)O)cc2cc(NC(=O)C(=O)Nc3ccc4c(O)c(N=Nc5ccc(C(=O)O)cc5C)c(S(=O)(=O)O)cc4c3)ccc2c1O` [Compound 103], the IC50 in test [1] and in test [4] was under 1000 nM throughout. For the same compound, the “conclusion of cell-based anti-HIV” value in test [3] is reported as “active or moderately active”.
